# Assay results: PMC9199882 (Clinical and Translational Science, 2022)
# Like-named read-outs stand apart in the source and are kept apart here.
# Legend:
# prothrombin time = assay: Prothrombin pharmacodynamic analysis of warfarin; settings: warfarin + asciminib vs warfarin alone
# [1] = warfarin 10 mg oral, cited from earlier work
# [2] = patients with CML, doses of up to 200 mg b.i.d.; cited from earlier work
# [3] = patients with CML, 40 mg bid, ref Novartis, unpublished data, cited from earlier work
# CYP2C8 = assay: Effect of asciminib on CYP2C8 substrate repaglinide; settings: for AUClast G mean ratio (90% CI) / Cmax G mean ratio (90% CI): repaglinide + asciminib / repaglinide
# [4] = cited from earlier work
# CYP2C9 = assay: Effect of asciminib on CYP2C9 substrate warfarin
# CYP3A = assay: Effect of asciminib on CYP3A substrate midazolam; settings: for AUClast G mean ratio (90% CI) / Cmax G mean ratio (90% CI): midazolam + asciminib / midazolam
# [5] = for Cmax, adjusted G mean: linear mixed model
# [6] = Repaglinide plasma PK, DDI study stage 2
# blood glucose = assay: Blood glucose concentration-time profile of repaglinide; type: in vivo, human; settings: blood glucose concentration–time profiles, 6 h post-dose, days 1 and 5
# [7] = Midazolam and 1-hydroxymidazolam plasma PK, DDI study stage 1
# [8] = midazolam 7.5 mg oral; cited from earlier work
# [9] = ref Novartis, unpublished data, 9, 10
# [10] = warfarin 5 mg oral + asciminib 40 mg b.i.d. steady-state, day 11, plasma
# [11] = warfarin 5 mg oral alone, day 1, plasma
# [12] = warfarin + asciminib 40 mg b.i.d. steady-state
# [13] = warfarin at asciminib steady-state vs warfarin alone
# [14] = repaglinide in the presence of asciminib vs alone
# [15] = midazolam at asciminib steady-state vs midazolam alone
compound,measurement,setting,value
"CC(=O)CC(c1ccccc1)c1c(O)c2ccccc2oc1=O (stereo not drawn) [Warfarin, warfarin]",anticoagulation activity on co‐administration with asciminib,prothrombin time,unaffected
same,Cmax,[1]; read-out: median Cmax,1700 to 2000 nM
same,median Cmax,[1]; converted from μM,500 to 600 ng/mL
same,median Tmax,[1],2 h
"O=C(Nc1ccc(OC(F)(F)Cl)cc1)c1cnc(N2CC[C@@H](O)C2)c(-c2ccn[nH]2)c1 [Asciminib, asciminib]",maximum tolerated dose,[2],not reached
same,"Cmax at steady‐state, unbound asciminib",[3],48 nM
same,Cmax,"[3]; read-out: Cmax at steady‐state, total asciminib",1770 nM
same,effect on CYP2C8,CYP2C8; asciminib 40 mg b.i.d.,no meaningful effect
same,half‐life (T 1/2),[4],7 to 15 h
same,unchanged asciminib in urine,[4],2.5%
same,unchanged asciminib share of drug‐related exposure in plasma,[4],> 90%
same,mean recovery from feces,[4]; disposition studies in humans,80%
same,clearance pathway: direct glucuronidation by UGT,"[4]; mainly UGT2B7, UGT2B17, UGT1A3/4, ref Novartis, unpublished data, 9, 10",27.9%
same,clearance pathway: oxidation by CYP3A4,"[4]; part of the CYP oxidation, ref Novartis, unpublished data, 9, 10",36%
same,median time to reach the maximum plasma concentration (Tmax),[4]; post‐dose,2 to 3 h
same,clearance pathway: biliary secretion by BCRP,[4]; [9],31.1%
same,clearance pathway: oxidation by cytochrome P450 enzymes,[4]; [9],37.8%
same,"inhibitor classification, CYP2C9",CYP2C9; asciminib 40 mg b.i.d.,weak inhibitor
same,"inhibitor classification, CYP3A","CYP3A; human, in vivo",weak inhibitor
"CC(=O)C[C@H](c1ccccc1)c1c(O)c2ccccc2oc1=O [R‐Warfarin, R‐warfarin]","Cmax, G mean (GCV%)",[5]; [10],213 (20.4) ng/ml
same,"Tmax, median (range)",[5]; [10],2.95 (0.94–11.7) h
same,"Cmax, G mean (GCV%)",[5]; [11],196 (19.6) ng/ml
same,"Tmax, median (range)",[5]; [11],2.01 (0.99–12.0) h
same,"Tmax, median (range)","[5]; warfarin 5 mg oral alone, day 1, plasma, listed as R‐warfarin",2.0 h
same,"Cmax, adjusted G mean",[5]; [12],215 ng/mL
same,"Cmax, adjusted G mean",[5]; warfarin alone,196 ng/mL
same,increase in AUCinf,CYP2C9; [13],25%
same,increase in AUClast,CYP2C9; [13],24%
same,increase in Cmax,CYP2C9; [13],10%
"CCOc1cc(CC(=O)N[C@@H](CC(C)C)c2ccccc2N2CCCCC2)ccc1C(=O)O [Repaglinide, repaglinide]",AUClast G mean ratio (90% CI),CYP2C8,1.09
same,Cmax G mean ratio (90% CI),CYP2C8,1.14
same,AUClast G mean ratio (90% CI),CYP2C8; listed as repaglinide,"1.09 (1.03, 1.15)"
same,Cmax G mean ratio (90% CI),CYP2C8; listed as repaglinide,"1.14 (1.01, 1.28)"
same,increase in AUCinf,CYP2C8; [14],8%
same,increase in AUClast,CYP2C8; [14],9%
same,increase in Cmax,CYP2C8; [14],14%
same,Cmax,"[6]; human, plasma, oral, 0.5 mg",6.71 ng/mL
same,Cmax,"[6]; human, plasma, po, 0.5 mg",6.71 ng/mL
same,Tmax,"[6]; human, plasma, po, 0.5 mg",0.75 h
same,Vd/F,"[6]; human, plasma, po, 0.5 mg",162 L
same,"CL/F, G mean (GCV%)","[6]; repaglinide 0.5 mg oral + asciminib 40 mg b.i.d. steady-state, day 5",43.2 (38.2) L/h
same,"T 1/2, G mean (GCV%)","[6]; repaglinide 0.5 mg oral + asciminib 40 mg b.i.d. steady-state, day 5, plasma",2.09 (76.3) h
same,"CL/F, G mean (GCV%)","[6]; repaglinide 0.5 mg oral alone, day 1",46.3 (36.8) L/h
same,"T 1/2, G mean (GCV%)","[6]; repaglinide 0.5 mg oral alone, day 1, plasma",2.42 (46.2) h
same,glucose‐metabolizing activity alone or in combination with asciminib,blood glucose,no difference
"OCc1ncc2n1-c1ccc(Cl)cc1C(c1ccccc1F)=NC2 [1-hydroxymidazolam, 1‐hydroxymidazolam]",metabolite‐to‐parent ratio of G mean AUCinf,[7]; midazolam alone,0.31
same,metabolite‐to‐parent ratio of G mean AUClast,[7]; midazolam alone,0.31
same,metabolite‐to‐parent ratio of G mean AUCinf,[7]; midazolam with asciminib,0.29
same,metabolite‐to‐parent ratio of G mean AUClast,[7]; midazolam with asciminib,0.27
"Cc1ncc2n1-c1ccc(Cl)cc1C(c1ccccc1F)=NC2 [Midazolam, midazolam]",median Cmax,[8],63.1 ng/mL
same,median T 1/2,[8],3.2 h
same,median Tmax,[8],0.34 h
same,AUC(0-inf),"[7]; human, plasma, oral, AUCinf, adjusted G mean, midazolam alone, linear mixed model",37.4 ng·h/mL
same,AUC(0-t),"[7]; human, plasma, oral, AUClast, adjusted G mean, midazolam alone, linear mixed model",35.4 ng·h/mL
same,Cmax,"[7]; human, plasma, oral, Cmax, adjusted G mean, midazolam alone, linear mixed model",15.9 ng/mL
same,Tmax,"[7]; human, plasma, po, 4 mg",0.51 h
same,Vd/F,"[7]; human, plasma, po, 4 mg",413 L
same,"CL/F, G mean (GCV%)","[7]; midazolam 4 mg oral + asciminib 40 mg b.i.d. steady-state, day 11",83.0 (38.8) L/h
same,"AUClast, G mean (GCV%)","[7]; midazolam 4 mg oral + asciminib 40 mg b.i.d. steady-state, day 11, plasma",44.9 (38.1) ng × h/ml
same,"CL/F, G mean (GCV%)","[7]; midazolam 4 mg oral alone, day 1",107 (31.2) L/h
same,AUClast G mean ratio (90% CI),CYP3A,1.27
same,Cmax G mean ratio (90% CI),CYP3A,1.11
same,AUClast G mean ratio (90% CI),CYP3A; listed as midazolam,"1.27 (1.14, 1.41)"
same,Cmax G mean ratio (90% CI),CYP3A; listed as midazolam,"1.11 (0.96, 1.28)"
same,increase in AUCinf,CYP3A; [15],28%
same,increase in AUClast,CYP3A; [15],27%
same,increase in Cmax,CYP3A; [15],11%
"CC(=O)C[C@@H](c1ccccc1)c1c(O)c2ccccc2oc1=O [S‐Warfarin, S‐warfarin]","Cmax, G mean (GCV%)",[5]; [10],225 (17.2) ng/ml
same,"Tmax, median (range)",[5]; [10],2.00 (0.94–3.99) h
same,"Cmax, G mean (GCV%)",[5]; [11],209 (18.6) ng/ml
same,"Tmax, median (range)",[5]; [11],2.00 (0.99–4.00) h
same,"Cmax, adjusted G mean",[5]; [12],227 ng/mL
same,"Cmax, adjusted G mean",[5]; warfarin alone,209 ng/mL
same,increase in AUClast,CYP2C9; [13],39%
same,increase in Cmax,CYP2C9; [13],9%
